Assay results taken from patent US8404718B2, “Combinations of pyrazole kinase inhibitors” (Astex Therapeutics Limited, priority 2005, dated 2013).

Each molecule was assayed on human colon carcinoma cell line HCT 116 (assay: Anti-proliferative activity, Alamar Blue assay). Conditions: 72 hours compound incubation, read-out: IC50, inhibition of cell growth, HCT 116.
Format: cell-based
Method: The anti-proliferative activities of the combinations of the invention, as well as the individual components of the combinations, are determined by measuring the ability of the compounds to inhibition of cell growth in a number of cell lines. Inhibition of cell growth is measured using the Alamar Blue assay (Nociari, M. M, Shalev, A., Benias, P., Russo, C. Journal of Immunological Methods 1998, 213, 157-167). The method is based on the ability of viable cells to reduce resazurin to its fluorescent product resorufin. For each proliferation assay cells are plated onto 96 well plates and allowed to recover for 16 hours prior to the addition of inhibitor compounds for a further 72 hours. At the end of the incubation period 10% (v/v) Alamar Blue is added and incubated for a further 6 hours prior to determination of fluorescent product at […]. In the case of the non-proliferating cell assay cells are maintained at confluence for 96 hour prior to the addition of inhibitor compounds for a further 72 hours. The number of viable cells is determined by Alamar Blue assay as before. All cell lines are obtained from ECACC (European Collection of cell Cultures).

IC50 [µM]	Compound
< 100	O=C(Nc1ccc(F)cc1)c1n[nH]cc1NC(=O)C(F)(F)F [Example 3, 4-(2,2,2-Trifluoro-acetylamino)-1H-pyrazole-3-carboxylic acid (4-fluoro-phenyl)-amide]
< 20	O=C(CCc1ccc(Cl)cc1)Nc1c[nH]nc1C(=O)Nc1ccc(F)cc1 [Example 10, 4-[3-(4-Chloro-phenyl)-propionylamino]-1H-pyrazole-3-carboxylic acid (4-fluoro-phenyl)-amide]
< 20	COc1ccccc1C(=O)Nc1c[nH]nc1C(=O)Nc1ccc(F)cc1 [Example 25, 4-(2-Methoxy-benzoylamino)-1H-pyrazole-3-carboxylic acid (4-fluoro-phenyl)-amide]
< 20	O=C(Nc1ccc(F)cc1)c1n[nH]cc1NC(=O)C1CCCCC1 [Example 27, 4-(Cyclohexanecarbonyl-amino)-1H-pyrazole-3-carboxylic acid (4-fluoro-phenyl)-amide]
< 100	O=C(CO)Nc1c[nH]nc1C(=O)Nc1ccc(F)cc1 [Example 29, 4-(2-Hydroxy-acetylamino)-1H-pyrazole-3-carboxylic acid (4-fluoro-phenyl)-amide]
< 100	O=C(Nc1c[nH]nc1C(=O)Nc1ccc(F)cc1)c1ccco1 [Example 38, 4-[(Furan-2-carbonyl)-amino]-1H-pyrazole-3-carboxylic acid (4-fluoro-phenyl)-amide]
< 100	O=C(Nc1c[nH]nc1C(=O)Nc1ccc(F)cc1)c1cnc[nH]1 [Example 39, 4-[(3H-Imidazole-4-carbonyl)-amino]-1H-pyrazole-3-carboxylic acid (4-fluoro-phenyl)-amide]
< 20	O=C(Nc1c[nH]nc1C(=O)Nc1ccc(F)cc1)c1ccc(CO)cc1 [Example 44, 4-(4-Hydroxymethyl-benzoylamino)-1H-pyrazole-3-carboxylic acid (4-fluoro-phenyl)-amide]
< 20	Cc1ccccc1C(=O)Nc1c[nH]nc1C(=O)Nc1ccc(F)cc1 [Example 46, 4-(2-Methyl-benzoylamino)-1H-pyrazole-3-carboxylic acid (4-fluoro-phenyl)-amide]
< 100	O=C(Nc1c[nH]nc1C(=O)Nc1ccc(F)cc1)c1ccc2ccccc2n1 [Example 49, Quinoline-2-carboxylic acid[3-(4-fluoro-phenylcarbamoyl)-1H-pyrazol-4-yl]-amide]
< 20	O=C(Nc1c[nH]nc1C(=O)Nc1ccc(F)cc1)c1ccsc1 [Example 50, 4-[(Thiophene-3-carbonyl)-amino]-1H-pyrazole-3-carboxylic acid (4-fluoro-phenyl)-amide]
< 100	COc1cccc(C(=O)Nc2c[nH]nc2C(=O)Nc2ccc(F)cc2)c1F [Example 51, 4-(2-fluoro-3-methoxy-benzoylamino)-1H-pyrazole-3-carboxylic acid (4-fluoro-phenyl)-amide]
< 20	O=C(Nc1c[nH]nc1C(=O)Nc1ccc(F)cc1)c1ccccc1OCCN1CCCC1 [Example 52, 4-[2-(2-Pyrrolidin-1-yl-ethoxy)-benzoylamino]-1H-pyrazole-3-carboxylic acid 4-fluorophenylamide]
< 20	COc1cccc(OC)c1C(=O)Nc1c[nH]nc1C(=O)Nc1ccc(F)cc1 [Example 60]
< 20	O=C(NC1CCOCC1)c1n[nH]cc1NC(=O)c1c(F)cccc1F [Example 66]
< 20	O=C(NCC1CCOCC1)c1n[nH]cc1NC(=O)c1c(F)cccc1F [Example 67]
< 20	O=C(NCC1CCCCC1)c1n[nH]cc1NC(=O)c1c(F)cccc1F [Example 69]
< 20	O=C(Nc1cccc(CO)c1)c1n[nH]cc1NC(=O)c1c(F)cccc1F [Example 73]
< 20	O=C(Nc1cccc(CN2CCOCC2)c1)c1n[nH]cc1NC(=O)c1c(F)cccc1F [Example 74]
< 20	O=C(NC1CCCC1)c1n[nH]cc1NC(=O)c1c(F)cccc1F [Example 75]
< 20	O=C(NCC1CC1)c1n[nH]cc1NC(=O)c1c(F)cccc1F [Example 79]
< 20	Cc1[nH]nc(C(=O)Nc2ccc(F)cc2)c1NC(=O)c1c(F)cccc1F [Example 80]
< 20	CCOC(=O)C1CCC(NC(=O)c2n[nH]cc2NC(=O)c2c(F)cccc2F)CC1 (centres unmarked) [Example 83A, 4-{[4-(2,6-difluoro-benzoylamino)-1H-pyrazole-3-carbonyl]-amino}-cyclohexanecarboxylic acid ethyl ester]
< 100	O=C(NC1CCN(Cc2ccccc2)C1)c1n[nH]cc1NC(=O)c1c(F)cccc1F (centres unmarked) [Example 85]

IC50 [µM]	Compound
< 100	O=C(NCc1ccccn1)c1n[nH]cc1NC(=O)c1c(F)cccc1F [Example 89]
< 20	O=C(NCc1ccccc1)c1n[nH]cc1NC(=O)c1c(F)cccc1F [Example 90]
< 20	O=C(NCc1ccccc1Cl)c1n[nH]cc1NC(=O)c1c(F)cccc1F [Example 91]
< 20	O=C(NCc1ccccc1F)c1n[nH]cc1NC(=O)c1c(F)cccc1F [Example 92]
< 20	O=C(NC1CCC(O)CC1)c1n[nH]cc1NC(=O)c1c(F)cccc1F (centres unmarked) [Example 95]
< 20	CC(C)(C)OC(=O)N1CCCC(CNC(=O)c2n[nH]cc2NC(=O)c2c(F)cccc2F)C1 (centres unmarked) [Example 97]
< 20	O=C(NCC1CCCNC1)c1n[nH]cc1NC(=O)c1c(F)cccc1F (centres unmarked) [Example 98]
< 20	O=C(Nc1cc(F)ccc1OCCN1CCCC1)c1n[nH]cc1NC(=O)c1c(F)cccc1F [Example 166, 4-(2,6-Difluoro-benzoylamino)-1H-pyrazole-3-carboxylic acid[5-fluoro-2-(2-pyrrolidin-1-yl-ethoxy)-phenyl]-amide]
< 100	Cn1nc(C(C)(C)C)cc1C(=O)Nc1c[nH]nc1C(=O)NCC1CC1 [Example 183]
< 20	O=C(NC1CCNC1)c1n[nH]cc1NC(=O)c1c(F)cccc1F (centres unmarked) [Example 185]
< 20	O=C(Nc1c[nH]nc1C(=O)NC1CCNCC1)c1cccc2c1OCCO2 [Example 192]
< 20	O=C(NC1CCNCC1)c1n[nH]cc1NC(=O)c1cnn2ccccc12 [Example 193]
< 20	COc1nc(Cl)cc(C)c1C(=O)Nc1c[nH]nc1C(=O)NC1CCNCC1 [Example 195]
< 20	CN1CCC(NC(=O)c2n[nH]cc2NC(=O)c2c(F)cc(F)cc2F)CC1 [Example 205]
< 20	CN1CCN(NC(=O)c2n[nH]cc2NC(=O)c2c(Cl)cccc2Cl)CC1 [Example 207]
< 20	COC1CCC(NC(=O)c2n[nH]cc2NC(=O)c2c(Cl)cccc2Cl)CC1 (centres unmarked) [Example 210]
< 20	CN1CCN(c2cc(F)cc(C(=O)Nc3c[nH]nc3C(=O)NC3CCC(C(C)(C)C)CC3)c2)CC1 (centres unmarked) [Example 214]
< 20	O=C(Nc1cccnc1)c1n[nH]cc1NC(=O)c1c(Cl)cccc1Cl [Example 218]
< 20	O=C(NC1CCN(CC2CCOC2)CC1)c1n[nH]cc1NC(=O)c1c(Cl)cccc1Cl (centres unmarked) [Example 219]
< 20	O=C(Nc1ccncc1)c1n[nH]cc1NC(=O)c1c(Cl)cccc1Cl [Example 220]
< 20	O=C(NC1CCN(C2CCOCC2)CC1)c1n[nH]cc1NC(=O)c1c(F)cccc1F [Example 221]
< 20	COc1cccc(F)c1C(=O)Nc1c[nH]nc1C(=O)Nc1cccnc1 [Example 222]
< 20	O=C(Nc1cccnc1)c1n[nH]cc1NC(=O)c1c(F)cccc1F [Example 223]

Compound	IC50 [µM]
O=C(NC1CCNCC1)c1n[nH]cc1NC(=O)c1c(Cl)cccc1Cl [Example 150]	< 20
O=C(N[C@@H]1CN2CCC1CC2)c1n[nH]cc1NC(=O)c1c(F)cccc1F [Example 216]	< 100

What follows are molecules tested against Activated CDK2/CyclinA (Homo sapiens, UniProt P24941) (assay: Activated CDK2/CyclinA kinase inhibitory activity assay (IC50), Example 250A). Conditions: not given.
Format: biochemical
Method: Compounds of the invention were tested for kinase inhibitory activity using the following protocol.
The reaction is allowed to proceed for 2 to 4 hours before being stopped with an excess of ortho-phosphoric acid (5 μl at 2%).
γ^33P-ATP which remains unincorporated into the histone H1 is separated from phosphorylated histone H1 on a Millipore MAPH filter plate. The wells of the MAPH plate are wetted with 0.5% orthophosphoric acid, and then the results of the reaction are filtered with a Millipore vacuum filtration unit through the wells. Following filtration, the residue is washed twice with 200 μl of 0.5% orthophosphoric acid. Once the filters have dried, 20 μl of Microscint 20 scintillant is added, and then counted on a Packard Topcount for 30 seconds.

IC50 [µM]	Compound
< 20	O=C(NC[C@H]1CC[C@H](NC(=O)c2n[nH]cc2NC(=O)c2c(F)cccc2F)CC1)OCc1ccccc1 [Example 130]
< 20	O=C(Nc1ccccc1)Nc1c[nH]nc1C(=O)N[C@H]1CC[C@H](O)CC1 [Example 156]
< 20	O=C(N[C@H]1CC[C@@H](N2CCOCC2)CC1)c1n[nH]cc1NC(=O)c1c(F)cccc1F [Example 168]
< 20	CC(C)(C)CNC(=O)Nc1c[nH]nc1C(=O)N[C@H]1CC[C@H](O)CC1 [Example 169]
< 20	O=C(N[C@H]1CC[C@@H](NC2CCOCC2)CC1)c1n[nH]cc1NC(=O)c1c(F)cccc1F [Example 170]
< 20	CN1CCC(NC(=O)Nc2c[nH]nc2C(=O)N[C@H]2CC[C@H](O)CC2)CC1 [Example 171]
< 20	CC(C)(C)OC(=O)N1CCC(NC(=O)c2n[nH]cc2NC(=O)c2ccccc2)CC1 [Example 172]
< 20	CC(C)(C)OC(=O)N1CCC(NC(=O)c2n[nH]cc2NC(=O)c2ccc(F)cc2)CC1 [Example 173]
< 20	CN1CCC(N2CCC(NC(=O)c3n[nH]cc3NC(=O)c3c(F)cccc3F)CC2)CC1 [Example 177]
< 20	CN1CCC(C(=O)Nc2c[nH]nc2C(=O)NCC2CC2)CC1 [Example 181]
